Earlier results as cited in patent EP2055233B1 (priority 2003, dated 2004).

Key:
[1] = in vivo, iv

For CC(C)c1cccc(C(C)C)c1O [propofol, 2,6-diisopropylphenol], the “dose recovered in urine as hydroxylated and conjugated metabolites” value is listed as 88% and the plasma concentration [1] is listed as 1000 to 10000 ng/mL.
